Laboratory results published in US20200407717A1, “METHODS OF MODULATING ANTISENSE ACTIVITY” (Ionis Pharmaceuticals, Inc., priority 2018, published 2020).
e = 2'-O-(2-methoxyethyl) (MOE); d = 2'-deoxy (DNA)

Tested on: Malat1 RNA
Experiment: Antisense activity by RT-qPCR, Malat1, A431 cells
Type: cell-based
Experimental: A431 cells were grown at 10,000 cells per well and pre-treated with a variety of growth factors to determine if the addition of exogenous growth factors affects antisense activity or uptake of modified antisense oligonucleotides in a cell. The growth factors used were EGF, insulin growth factor (IGF), transforming growth factor (TGF), […] (VEGF), hepatocyte growth factor (HGF), platelet growth factor (PGF) and fibroblasts growth factor (FGF). To test antisense activity, cells were treated for 4 hours with a growth factor or vehicle alone, and then treated with compound no. 25690 (complementary to Drosha), compound no. 395254 (complementary to Malat1), or vehicle alone. RNA was isolated from the cells and Drosha or Malat1 RNA levels were measured by RT-qPCR. Human primer probe set 13816 (forward sequence […], designated herein as SEQ ID NO: 3; reverse sequence […], designated herein as SEQ ID NO: 4; probe sequence […], designated herein as SEQ ID NO: 5) was used to measure Drosha mRNA levels and primer probe set RTS2736 (forward sequence […], designated herein as SEQ ID NO: 6; reverse sequence […], designated herein as SEQ ID NO: 7; probe sequence TGCCACATCGCCACCCCGT, designated herein as SEQ ID NO: 8) was used to measure Malat1 RNA levels. Drosha and Malat1 RNA levels were normalized to total RNA content, as measured by RIBOGREEN®. Results are presented in the tables below as normalized RNA levels, relative to untreated control cells.
A431 cells were treated with EGF or TGF at 200 ng/mL in the presence or absence of 1 μM of the EGFR tyrosine kinase inhibitor PD174265. The cells were then treated with compound no. 25690 or compound no. 395254 as in Example 8. Total RNA was isolated and analyzed by RT-qPCR, as in Example 8.
Following siRNA treatment, cells were treated with compound no. 25690 or compound no. 395254 in the presence or absence of EGF. 16 hours after treatment with a PS-ASO with or without EGF, cells were harvested, and RNA levels were analyzed via RT-qPCR as in Example 8.

In the case of “AGGAAGGAAGCTGGCGATCT (sugars from the 5' end e5 d10 e5, all phosphorothioate, methylation of C not given here) [compound 25690]”, the “Malat1 RNA (% Control)” value (2.0 nM, Control, Table 19) is reported as 100.0 % Control, the “Malat1 RNA (% Control)” value (2.0 nM, EGF+PD174265) is reported as 100.0 % Control and the “Malat1 RNA (% Control)” value (2.0 nM, EGF, Table 19) is reported as 100.0 % Control. For the same sequence, the “Malat1 RNA (% Control)” value (3.9 nM, Control, Table 19) was 99.2 % Control, the “Malat1 RNA (% Control)” value (3.9 nM, EGF+PD174265) was 110.0 % Control and the “Malat1 RNA (% Control)” value (3.9 nM, EGF, Table 19) was 105.0 % Control. The “Malat1 RNA (% Control)” value (7.8 nM, Control, Table 19) was 98.2 % Control, the “Malat1 RNA (% Control)” value (7.8 nM, EGF+PD174265) was 97.2 % Control and the “Malat1 RNA (% Control)” value (7.8 nM, EGF, Table 19) was 78.2 % Control. For the same sequence, the “Malat1 RNA (% Control)” value (15.6 nM, Control, Table 19) was 72.3 % Control, the “Malat1 RNA (% Control)” value (15.6 nM, EGF+PD174265) was 61.2 % Control and the “Malat1 RNA (% Control)” value (15.6 nM, EGF, Table 19) was 60.1 % Control. The “Malat1 RNA (% Control)” value (31.3 nM, Control, Table 19) was 64.4 % Control, the “Malat1 RNA (% Control)” value (31.3 nM, EGF+PD174265) was 59.8 % Control and the “Malat1 RNA (% Control)” value (31.3 nM, EGF, Table 19) was 40.5 % Control. The “Malat1 RNA (% Control)” value (62.5 nM, Control, Table 19) was 59.6 % Control, the “Malat1 RNA (% Control)” value (62.5 nM, EGF+PD174265) was 50.2 % Control and the “Malat1 RNA (% Control)” value (62.5 nM, EGF, Table 19) was 43.9 % Control. The “Malat1 RNA (% Control)” value (125 nM, Control, Table 19) was 46.2 % Control, the “Malat1 RNA (% Control)” value (125 nM, EGF+PD174265) was 39.6 % Control and the “Malat1 RNA (% Control)” value (125 nM, EGF, Table 19) was 25.9 % Control. For the same sequence, the “Malat1 RNA (% Control)” value (250 nM, Control, Table 19) was 36.1 % Control, the “Malat1 RNA (% Control)” value (250 nM, EGF+PD174265) was 45.6 % Control and the “Malat1 RNA (% Control)” value (250 nM, EGF, Table 19) was 18.9 % Control. For the same sequence, the “Malat1 RNA (% Control)” value (500 nM, Control, Table 19) was 35.5 % Control, the “Malat1 RNA (% Control)” value (500 nM, EGF+PD174265) was 42.5 % Control and the “Malat1 RNA (% Control)” value (500 nM, EGF, Table 19) was 14.5 % Control. For the same sequence, the “Malat1 RNA (% Control)” value (1000 nM, Control, Table 19) was 22.3 % Control, the “Malat1 RNA (% Control)” value (1000 nM, EGF+PD174265) was 22.3 % Control and the “Malat1 RNA (% Control)” value (1000 nM, EGF, Table 19) was 15.2 % Control. For the same sequence, the “Malat1 RNA (% Control)” value (2000 nM, Control, Table 19) was 19.2 % Control, the “Malat1 RNA (% Control)” value (2000 nM, EGF+PD174265) was 15.3 % Control and the “Malat1 RNA (% Control)” value (2000 nM, EGF, Table 19) was 12.4 % Control. For the same sequence, the “Malat1 RNA (% Control)” value (4000 nM, Control, Table 19) was 17.2 % Control, the “Malat1 RNA (% Control)” value (4000 nM, EGF+PD174265) was 13.2 % Control and the “Malat1 RNA (% Control)” value (4000 nM, EGF, Table 19) was 10.2 % Control. For the same sequence, the IC50 (Control, Table 19) was 43 ± 5.7 nM, the IC50 (EGF 200 ng/mL + 1 μM PD174265, Table 19) was 47 ± 5.3 nM and the IC50 (EGF 200 ng/mL, Table 19) was 19 ± 3 nM.
